According to a melting point compilation (Tetko et al.; mined from patent text by program, amines drawn as free bases though some values may be those of a salt):

**Q.** For `Cc1cc(C(=O)N2CCC3(CC2)CSC2=C(O3)c3ccccc3C(=O)C2=O)c(C)o1`, which melting point is on record?
**A.** 234 to 235 °C

**Q.** Which melting point does the source give for `O=c1c2ccccc2nc(-c2sc(Nc3ccccc3)nc2-c2ccccc2)n1-c1ccccc1` here?
**A.** 181 to 182 °C

**Q.** Which melting point does the source give for `O=C(CCCN1CCC(C(O)(c2ccccc2)c2ccccc2)CC1)c1ccc(N2CCCCC2)cc1` here?
**A.** 138 to 139 °C

**Q.** For `Cc1ccc(-c2ccc(O)cc2)c(-c2ccc(OCCN3CCOCC3)cc2)n1`, which melting point is on record?
**A.** 75 to 80 °C

**Q.** For `CCCCSc1ccc(C(=O)Nc2ccc3cc(CN4CCCC4)cnc3c2C)cc1`, which melting point is on record?
**A.** 147 °C

**Q.** For `CC(C)(C)NC(=O)c1ncc[nH]1`, which melting point is on record?
**A.** 134 °C

**Q.** With `COC=C(C#CCON=C(C)c1cccc(C(F)(F)F)c1)C(=O)OC` as the molecule, how does the melting point read?
**A.** 57 to 58 °C

**Q.** Which melting point does the source give for `CCCCCCNc1nc(N)ccc1[N+](=O)[O-]` here?
**A.** 69 to 73 °C

**Q.** With `O=C(Cn1nnc2ccccc21)Nc1ccc(-n2nc(C(F)(F)F)cc2C2CC2)cc1` as the molecule, how does the melting point read?
**A.** 200 to 204 °C

**Q.** For `CS(=O)(=O)NC(=O)CCn1c2ccc(O)cc2c2c3c(c(-c4ccccc4Cl)cc21)C(=O)NC3=O`, which melting point is on record?
**A.** 290 to 296 °C

**Q.** For `CCC(CC)(CO)NC(N)=S`, which melting point is on record?
**A.** 148 to 151 °C

**Q.** Which melting point does the source give for `CCCc1c(OCCOc2ccc(C(=O)NCCCCc3cccnc3)cc2)ccc(C(C)=O)c1O` here?
**A.** 93 °C

**Q.** Which melting point does the source give for `CC(C)c1cccc(C(C)C)c1NC(=O)CN1CCN(CCCSc2nc3ccccc3o2)CC1` here?
**A.** 123 to 125 °C

**Q.** For `Oc1cccc(O)c1CCC(F)(F)F`, which melting point is on record?
**A.** 82 to 84 °C

**Q.** Which melting point does the source give for `O=C(O)Cc1ccc2c(c1)CCc1ccccc1S2` here?
**A.** 111 to 112 °C

**Q.** Which melting point does the source give for `COc1ccc2c3c1OC1C(=O)CC(C)C4(OC)C(C2)N(C)CCC314` (stereo unspecified) here?
**A.** 204 to 205 °C

**Q.** With `CN1C(c2ccc(Cl)cc2)=C(C#N)CC1C(F)(F)F` (stereo unspecified) as the molecule, how does the melting point read?
**A.** 158 to 160 °C

**Q.** With `COC(=N)NC(=O)CCl` as the molecule, how does the melting point read?
**A.** 123 °C

**Q.** Which melting point does the source give for `CCCc1c(C(=O)NCc2ccc3c(Br)c(OCC(=O)OC)ccc3c2)cnn1-c1ccccc1` here?
**A.** 144 to 146 °C

**Q.** With `Cc1c(C(=O)O)cnn1-c1nc(-c2ccc(C(F)(F)F)cc2)cs1` as the molecule, how does the melting point read?
**A.** 273 to 274 °C

**Q.** Which melting point does the source give for `Clc1ncc(C2CCCCC2)c2ccccc12` here?
**A.** 53 to 55 °C

**Q.** Which melting point does the source give for `CC(=O)c1ccc(Cn2ccc3c4c(N)nc(N)nc4ccc32)cc1` here?
**A.** 224 to 225 °C

**Q.** For `O=[N+]([O-])c1cc(Cl)cc2c1OCCO2`, which melting point is on record?
**A.** 135 to 137 °C

**Q.** For `CCCN(CCC)CCc1ccc(O)c2[nH]ncc12`, which melting point is on record?
**A.** 125 to 127 °C

**Q.** With `CC(C)(C)OC(=O)/C(=C/c1ccc(Br)cc1)C(=O)c1ccccc1O` as the molecule, how does the melting point read?
**A.** 98 to 100 °C

**Q.** With `CCCc1c(CSc2nnc(S)s2)ccc(C(C)=O)c1O` as the molecule, how does the melting point read?
**A.** 133 to 135 °C

**Q.** Which melting point does the source give for `COC(=O)[C@@H]1[C@H](/C=C/c2ccccc2)N1S(=O)c1ccc(C)cc1` (stereo partly specified) here?
**A.** 107 to 109 °C

**Q.** With `CC(C)N1C(=O)C(=O)N(c2cc(Cl)cc(Cl)c2)S1=O` (stereo unspecified) as the molecule, how does the melting point read?
**A.** 109 °C

**Q.** With `CCCC(Cc1ccc(OCCN2CCCCCC2)cc1)(C(=O)NO)S(=O)(=O)c1ccc(OC)cc1` (stereo unspecified) as the molecule, how does the melting point read?
**A.** 85 °C

**Q.** For `CC(=O)NC1(CNS(=O)(=O)c2ccccc2)CCN(C(=O)OC(C)(C)C)CC1`, which melting point is on record?
**A.** 226 to 227 °C

**Q.** Which melting point does the source give for `COc1cc(OC)n2ncc(Br)c2n1` here?
**A.** 188 to 190 °C

**Q.** Which melting point does the source give for `N#Cc1ccc(-c2ccc(-c3nc4cc(C#N)ccc4[nH]3)cc2)c(OCc2ccccc2)c1` here?
**A.** 205 to 208 °C

**Q.** For `N#CC1c2ccccc2CCc2ccccc21`, which melting point is on record?
**A.** 89 to 90 °C

**Q.** Which melting point does the source give for `Cc1nc2c(c(-c3cccc([N+](=O)[O-])c3)c1C(=O)OCCO)C(=O)OC2` here?
**A.** 130 °C

**Q.** With `CCC1CCC(=NO)C=C1c1ccc(OCC(=O)O)c(Cl)c1Cl` (stereo unspecified) as the molecule, how does the melting point read?
**A.** 88 to 90 °C

**Q.** For `Cc1cc(C)c(-n2[nH]c(Nc3ccc(Cl)cc3)cc2=O)c(C)c1N`, which melting point is on record?
**A.** 236 to 237 °C

**Q.** For `CN(C)CCCC1(O)c2ccccc2CCn2cccc21` (stereo unspecified), which melting point is on record?
**A.** 68 to 70 °C

**Q.** For `CC(C)(C)OC(=O)N1CCC2(CC1)Cn1cc([N+](=O)[O-])nc1O2`, which melting point is on record?
**A.** 230 to 232 °C

**Q.** For `O=C(O)c1ccc(OCC2CCN(CCOc3ccc4c(c3)OCO4)CC2)cc1`, which melting point is on record?
**A.** 133 to 136 °C

**Q.** Which melting point does the source give for `c1cn(CCCc2ccc(OCc3coc(-c4cc5c(s4)CCCC5)n3)cc2)cn1` here?
**A.** 83 to 84 °C

**Q.** With `CCCCCCCCCCCCS(=O)c1c(O)cc(C)oc1=O` (stereo unspecified) as the molecule, how does the melting point read?
**A.** 80 °C
